Reference: PubChem BioAssay AID190 (DTP/NCI, 2004)
Values joined by “and” are separate entries in the source; they are usually repeats but may differ in a detail not shown here. Equal values may be shown once. Toxic doses and inconclusive results are not listed. The calls were made as follows: active = survival T/C of 150% or more; inactive = T/C below 125% in these data.

Test system: AKR/Lw mice, AKR lymphoma ip, median survival T/C
Test: NCI In Vivo Anticancer Drug Screen. Data for tumor model Lymphoma AKR (Transplanted) (intraperitoneal) in AKR/Lw mice
Details: endpoint: median survival time, higher = longer survival
Method: The antitumor activity of compounds was measured in mice bearing transplantable tumors. Survival or tumor size were measured and the results are expressed as the measurement made in the treated group (T) divided by the measurement made in the vehicle treated control group (C). The tumor model used in this assay is Lymphoma AKR (Transplanted) (intraperitoneal) in AKR/Lw mice

Measured: T/C

C[C@]12C=CC(=O)C=C1CC[C@@H]1[C@@H]2C(=O)C[C@@]2(C)[C@H]1CC[C@]2(O)C(=O)CO
inactive: dose: 1.5 mg/kg/injection, schedule: Q ##X008 (sc), vehicle: steriod suspending solution 108 % of control | dose: 1.5 mg/kg/injection, schedule: Q## X008 (sc), vehicle: steriod suspending solution 108 % of control | dose: 3.0 mg/kg/injection, schedule: Q ##X008 (sc), vehicle: steriod suspending solution 109 % of control | dose: 3.0 mg/kg/injection, schedule: Q## X008 (sc), vehicle: steriod suspending solution 109 % of control | dose: 5.0 mg/kg/injection, schedule: Q01DX009 (sc), vehicle: steriod suspending solution 97 % of control | dose: 6.0 mg/kg/injection, schedule: Q ##X008 (sc), vehicle: steriod suspending solution 106 % of control | dose: 6.0 mg/kg/injection, schedule: Q## X008 (sc), vehicle: steriod suspending solution 106 % of control | dose: 10.0 mg/kg/injection, schedule: Q01DX009 (sc), vehicle: steriod suspending solution 100 % of control | dose: 12.0 mg/kg/injection, schedule: Q ##X008 (sc), vehicle: steriod suspending solution 120 % of control | dose: 12.0 mg/kg/injection, schedule: Q## X008 (sc), vehicle: steriod suspending solution 120 % of control | dose: 12.5 mg/kg/injection, schedule: Q01DX001 (sc), vehicle: steriod suspending solution 108 % of control | dose: 12.5 mg/kg/injection, schedule: Q01DX008 (sc), vehicle: steriod suspending solution 94 % of control | dose: 12.5 mg/kg/injection, schedule: Q04DX003 (sc), vehicle: steriod suspending solution 112 % of control | dose: 12.5 mg/kg/injection, schedule: Q## X008 (sc), vehicle: steriod suspending solution 94 % of control | dose: 15.0 mg/kg/injection, schedule: Q04DX002 (sc), vehicle: water 96 % of control | dose: 20.0 mg/kg/injection, schedule: Q01DX009 (sc), vehicle: steriod suspending solution 108 % of control | dose: 25.0 mg/kg/injection, schedule: Q01DX001 (sc), vehicle: steriod suspending solution 108 % of control and 113 % of control | dose: 25.0 mg/kg/injection, schedule: Q01DX004 (sc), vehicle: steriod suspending solution 115 % of control | dose: 25.0 mg/kg/injection, schedule: Q01DX008 (sc), vehicle: steriod suspending solution 119 % of control | dose: 25.0 mg/kg/injection, schedule: Q01DX009 (sc), vehicle: Klucel (hydroxypropylcellulose) (HPC) 96 % of control | dose: 25.0 mg/kg/injection, schedule: Q01DX009 (sc), vehicle: steriod suspending solution 100 % of control | dose: 25.0 mg/kg/injection, schedule: Q04DX002 (sc), vehicle: steriod suspending solution 99 % of control and 100 % of control | dose: 25.0 mg/kg/injection, schedule: Q04DX003 (sc), vehicle: steriod suspending solution 87 % of control | dose: 25.0 mg/kg/injection, schedule: Q## X008 (sc), vehicle: steriod suspending solution 120 % of control | dose: 30.0 mg/kg/injection, schedule: Q04DX002 (sc), vehicle: water 94 % of control and 98 % of control | dose: 35.0 mg/kg/injection, schedule: Q01DX001 (sc), vehicle: steriod suspending solution 96 % of control | dose: 45.0 mg/kg/injection, schedule: Q01DX001 (sc), vehicle: steriod suspending solution 105 % of control | dose: 50.0 mg/kg/injection, schedule: Q01DX004 (sc), vehicle: steriod suspending solution 100 % of control | dose: 50.0 mg/kg/injection, schedule: Q01DX008 (sc), vehicle: steriod suspending solution 101 % of control | dose: 50.0 mg/kg/injection, schedule: Q01DX009 (ip), vehicle: water 115 % of control | dose: 50.0 mg/kg/injection, schedule: Q01DX009 (sc), vehicle: steriod suspending solution 110 % of control | dose: 50.0 mg/kg/injection, schedule: Q04DX002 (sc), vehicle: steriod suspending solution 109 % of control | dose: 50.0 mg/kg/injection, schedule: Q04DX003 (sc), vehicle: steriod suspending solution 100 % of control and 108 % of control and 112 % of control | dose: 50.0 mg/kg/injection, schedule: Q## X008 (sc), vehicle: steriod suspending solution 101 % of control | dose: 60.0 mg/kg/injection, schedule: Q04DX002 (sc), vehicle: water 110 % of control and 111 % of control | dose: 75.0 mg/kg/injection, schedule: Q01DX001 (sc), vehicle: steriod suspending solution 100 % of control | dose: 75.0 mg/kg/injection, schedule: Q04DX002 (sc), vehicle: steriod suspending solution 106 % of control | dose: 90.0 mg/kg/injection, schedule: Q01DX001 (sc), vehicle: steriod suspending solution 114 % of control | dose: 100.0 mg/kg/injection, schedule: Q01DX004 (sc), vehicle: steriod suspending solution 113 % of control | dose: 100.0 mg/kg/injection, schedule: Q01DX008 (sc), vehicle: steriod suspending solution 78 % of control | dose: 100.0 mg/kg/injection, schedule: Q01DX009 (ip), vehicle: water 118 % of control | dose: 100.0 mg/kg/injection, schedule: Q01DX009 (sc), vehicle: steriod suspending solution 102 % of control | dose: 100.0 mg/kg/injection, schedule: Q04DX002 (sc), vehicle: steriod suspending solution 110 % of control | dose: 150.0 mg/kg/injection, schedule: Q04DX003 (ip), vehicle: saline 92 % of control | dose: 150.0 mg/kg/injection, schedule: Q04DX003 (sc), vehicle: steriod suspending solution 105 % of control and 118 % of control and 121 % of control | dose: 180.0 mg/kg/injection, schedule: Q01DX001 (sc), vehicle: steriod suspending solution 120 % of control | dose: 200.0 mg/kg/injection, schedule: Q01DX001 (sc), vehicle: steriod suspending solution 93 % of control and 102 % of control (2×) | dose: 200.0 mg/kg/injection, schedule: Q01DX009 (sc), vehicle: steriod suspending solution 89 % of control | dose: 300.0 mg/kg/injection, schedule: Q04DX003 (ip), vehicle: saline 95 % of control | dose: 300.0 mg/kg/injection, schedule: Q04DX003 (sc), vehicle: steriod suspending solution 114 % of control and 115 % of control (2×) | dose: 400.0 mg/kg/injection, schedule: Q04DX003 (sc), vehicle: steriod suspending solution 95 % of control | dose: 500.0 mg/kg/injection, schedule: Q01DX001 (sc), vehicle: steriod suspending solution 95 % of control | dose: 600.0 mg/kg/injection, schedule: Q01DX001 (sc), vehicle: steriod suspending solution 102 % of control

CC(C)(CCCl)NCc1ccccc1
inactive: dose: 100.0 mg/kg/injection, schedule: Q01DX001 (ip), vehicle: saline 102 % of control
